Measured values as given in US8188094B2, “Inhibitors of glutaminyl cyclase” (Probiodrug AG, priority 2007, dated 2012).

Target: glutaminyl cyclase (QC) (Homo sapiens, UniProt Q16769)
Test: QC inhibitor assay (fluorometric / spectrophotometric QC activity assays)
Format: biochemical
Conditions: QC inhibition, 30° C.; for Ki: progress curves fitted to the general equation for competitive inhibition
Procedure: All measurements were performed with a BioAssay Reader HTS-7000Plus for microplates (Perkin Elmer) at 30° C. QC activity was evaluated fluorometrically using H-Gln-βNA. The samples consisted of 0.2 mM fluorogenic substrate, 0.25 U pyroglutamyl aminopeptidase (Unizyme, Hørsholm, Denmark) in 0.2 M Tris/HCl, pH 8.0 containing 20 mM EDTA and an appropriately diluted aliquot of QC in a final volume of 250 μl. Excitation/emission wavelengths were 320/410 nm. The assay reactions were initiated by addition of glutaminyl cyclase. QC activity was determined from a standard curve of β-naphthylamine under assay conditions. One unit is defined as the amount of QC catalyzing the formation of 1 μmol pGlu-βNA from H-Gln-βNA per minute under the described conditions.
In a second fluorometric assay, QC was activity determined using H-Gln-AMC as substrate. Reactions were carried out at 30° C. utilizing the NOVOStar reader for microplates (BMG labtechnologies). The samples consisted of varying concentrations of the fluorogenic substrate, 0.1 U pyroglutamyl aminopeptidase (Qiagen) in 0.05 M Tris/HCl, pH 8.0 containing 5 mM EDTA and an appropriately diluted aliquot of QC in a final volume of 250 μl. Excitation/emission wavelengths were 380/460 nm. The assay reactions were initiated by addition of glutaminyl cyclase. QC activity was determined from a standard curve of 7-amino-4-methylcoumarin under assay conditions. The kinetic data were evaluated using GraFit software.
This novel assay was used to determine the kinetic parameters for most of the QC substrates. QC activity was analyzed spectrophotometrically using a continuous method, that was derived by adapting a previous discontinuous assay (Bateman, R. C. J. 1989 J Neurosci Methods 30, 23-28) utilizing glutamate dehydrogenase as auxiliary enzyme. Samples consisted of the respective QC substrate, 0.3 mM NADH, 14 mM α-Ketoglutaric acid and 30 U/ml glutamate dehydrogenase in a final volume of 250 μl. Reactions were started by addition of QC and persued by monitoring of the decrease in absorbance at 340 nm for 8-15 min.
The initial velocities were evaluated and the enzymatic activity was determined from a standard curve of ammonia under assay conditions. All samples were measured at 30° C., using either the SPECTRAFluor Plus or the Sunrise (both from TECAN) reader for microplates. Kinetic data was evaluated using GraFit software.
For inhibitor testing, the sample composition was the same as described above, except of the putative inhibitory compound added. For a rapid test of QC-inhibition, samples contained 4 mM of the respective inhibitor and a substrate concentration at 1 KM. For detailed investigations of the inhibition and determination of Ki-values, influence of the inhibitor on the auxiliary enzymes was investigated first. In every case, there was no influence on either enzyme detected, thus enabling the reliable determination of the QC inhibition. The inhibitory constant was evaluated by fitting the set of progress curves to the general equation for competitive inhibition using GraFit software.

Chain of glutaminyl cyclase (QC) (Q16769 29-361): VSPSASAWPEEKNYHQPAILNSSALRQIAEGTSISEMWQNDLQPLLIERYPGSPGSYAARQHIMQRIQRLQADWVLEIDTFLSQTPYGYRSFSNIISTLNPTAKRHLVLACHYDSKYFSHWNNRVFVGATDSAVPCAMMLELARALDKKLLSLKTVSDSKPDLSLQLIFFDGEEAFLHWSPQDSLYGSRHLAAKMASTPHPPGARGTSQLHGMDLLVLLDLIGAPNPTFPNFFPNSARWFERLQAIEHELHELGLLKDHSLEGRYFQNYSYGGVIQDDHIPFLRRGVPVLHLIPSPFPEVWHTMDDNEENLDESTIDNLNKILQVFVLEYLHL

IC50 [µM]	Ki [µM]	Compound
47.8	18	Cc1cc(NCCCn2ccnc2)nc(-c2ccccc2)n1 [Example 1, N-(3-(1H-imidazol-1-yl)propyl)-6-methyl-2-phenylpyrimidin-4-amine]
49.8	3.9	c1ccc(-c2cc(NCCCn3ccnc3)nc(-c3ccccc3)n2)cc1 [Example 2, N-(3-(1H-imidazol-1-yl)propyl)-2,6-diphenylpyrimidin-4-amin]
28.1	4.6	Cc1nc(NCCCn2ccnc2)cc(-c2ccccc2)n1 [Example 3, N-(3-(1H-imidazol-1-yl)propyl)-2-methyl-6-phenylpyrimidin-4-amine]
30.3	9.31	Cc1cc(NCCCn2ccnc2)nc(C)n1 [Example 4, N-(3-(1H-imidazol-1-yl)propyl)-2,6-dimethylpyrimidin-4-amine]
13.3	3.52	Cc1ccc(-c2cc(NCCCn3ccnc3)nc(C)n2)cc1 [Example 5, N-(3-(1H-imidazol-1-yl)propyl)-2-methyl-6-p-tolylpyrimidin-4-amine]
14.7	4.69	Cc1nc(NCCCn2ccnc2)cc(-c2cc(C(F)(F)F)cc(C(F)(F)F)c2)n1 [Example 6, N-(3-(1H-imidazol-1-yl)propyl)-6-(3,5-bis(trifluoromethyl)phenyl)-2-methyl-pyrimidin-4-amine]
91.1		FC(F)(F)c1cc(-c2cc(NCCCn3ccnc3)nc(-c3ccccc3)n2)cc(C(F)(F)F)c1 [Example 7, N-(3-(1H-imidazol-1-yl)propyl)-6-(3,5-bis(trifluoromethyl)phenyl)-2-phenyl-pyrimidin-4-amine]
7.08	1.16	COc1cc(-c2cc(NCCCn3ccnc3)nc(-c3ccccc3)n2)cc(OC)c1OC [Example 8, N-(3-(1H-imidazol-1-yl)propyl)-6-(3,4,5-trimethoxyphenyl)-2-phenylpyrimidin-4-amine]
14.4		Cc1ccc(-c2cc(NCCCn3ccnc3)nc(-c3ccccc3)n2)cc1 [Example 9, N-(3-(1H-imidazol-1-yl)propyl)-2-phenyl-6-p-tolylpyrimidin-4-amine]
12.4		O=[N+]([O-])c1ccc(-c2cc(NCCCn3ccnc3)nc(-c3ccccc3)n2)cc1 [Example 10, N-(3-(1H-imidazol-1-yl)propyl)-6-(4-nitrophenyl)-2-phenylpyrimidin-4-amine]
22.6		COc1ccccc1-c1cc(NCCCn2ccnc2)nc(-c2ccccc2)n1 [Example 11, N-(3-(1H-imidazol-1-yl)propyl)-6-(2-methoxyphenyl)-2-phenylpyrimidin-4-amine]
9.37	3.75	COc1cccc(-c2cc(NCCCn3ccnc3)nc(-c3ccccc3)n2)c1 [Example 12, N-(3-(1H-imidazol-1-yl)propyl)-6-(3-methoxyphenyl)-2-phenylpyrimidin-4-amine]
40.3	14.9	c1ccc(-c2nc(NCCCn3ccnc3)cc(-c3ccoc3)n2)cc1 [Example 13, N-(3-(1H-imidazol-1-yl)propyl)-6-(furan-3-yl)-2-phenylpyrimidin-4-amine]
116		c1ccc(-c2nc(NCCCn3ccnc3)cc(C34CC5CC(CC(C5)C3)C4)n2)cc1 [Example 14, N-(3-(1H-imidazol-1-yl)propyl)-6-(adamant-1-yl)-2-phenylpyrimidin-4-amine]
27.3	3.7	c1cc(-c2nc(NCCCn3ccnc3)cc(-c3ccoc3)n2)ccn1 [Example 17, N-(3-(1H-imidazol-1-yl)propyl)-6-(furan-3-yl)-2-(pyridin-4-yl)pyrimidin-4-amine]
36.8	4.19	FC(F)(F)c1cc(NCCCn2ccnc2)nc(-c2ccncc2)n1 [Example 18, N-(3-(1H-imidazol-1-yl)propyl)-6-(trifluoromethyl)-2-(pyridin-4-yl)pyrimidin-4-amine]
20.9	2.7	COc1cccc(-c2cc(NCCCn3ccnc3)nc(C)n2)c1 [Example 19, N-(3-(1H-imidazol-1-yl)propyl)-6-(3-methoxyphenyl)-2-methylpyrimidin-4-amine]
6.43	0.72	COc1cc(-c2cc(NCCCn3ccnc3)nc(C)n2)cc(OC)c1OC [Example 20, N-(3-(1H-imidazol-1-yl)propyl)-6-(3,4,5-trimethoxy-phenyl)-2-methyl-pyrimidin-4-amine]
18.5	2.26	COc1ccc(-c2cc(NCCCn3ccnc3)nc(C)n2)cc1 [Example 21, N-(3-(1H-imidazol-1-yl)propyl)-6-(4-methoxyphenyl)-2-methylpyrimidin-4-amine]
19.3	2.16	COc1ccccc1-c1cc(NCCCn2ccnc2)nc(C)n1 [Example 22, N-(3-(1H-imidazol-1-yl)propyl)-6-(2-methoxyphenyl)-2-methylpyrimidin-4-amine]
16.9		O=[N+]([O-])c1ccc(-c2cc(NCCCn3ccnc3)nc(-c3ccncc3)n2)cc1 [Example 24, N-(3-(1H-imidazol-1-yl)propyl)-6-(4-nitrophenyl)-2-(pyridin-4-yl)pyrimidin-4-amine]
30.6		Cc1ccc(-c2cc(NCCCn3ccnc3)nc(-c3ccncc3)n2)cc1 [Example 25, N-(3-(1H-imidazol-1-yl)propyl)-2-(pyridin-4-yl)-6-p-tolylpyrimidin-4-amine]
8.18	0.83	COc1ccccc1-c1cc(NCCCn2ccnc2)nc(-c2ccncc2)n1 [Example 26, N-(3-(1H-imidazol-1-yl)propyl)-6-(2-methoxyphenyl)-2-(pyridin-4-yl)pyrimidin-4-amine]
19		COc1cccc(-c2cc(NCCCn3ccnc3)nc(-c3ccncc3)n2)c1 [Example 27, N-(3-(1H-imidazol-1-yl)propyl)-6-(3-methoxyphenyl)-2-(pyridin-4-yl)pyrimidin-4-amine]
1.09	0.281	COc1ccccc1-c1cc(NCCCn2cncc2C)nc(-c2ccncc2)n1 [Example 28, 6-(2-Methoxyphenyl)-N-(3-(5-methyl-1H-imidazol-1-yl)propyl)-2-(pyridin-4-yl)pyrimidin-4-amine]
100		c1ccc(-c2nc(Nc3ccc4nc[nH]c4c3)cc(-c3ccc4ncccc4c3)n2)cc1 [Example 30, N-(2-phenyl-6-(quinolin-6-yl)pyrimidin-4-yl)-3H-benzo[d]imidazol-5-amine]
31.4	3.56	Cc1nc(NCCCn2ccnc2)cc(-c2ccc3ncccc3c2)n1 [Example 31, N-(3-(1H-imidazol-1-yl)propyl)-2-methyl-6-(quinolin-6-yl)pyrimidin-4-amine]
26.5	3.06	c1ccc(C2CC2c2cc(NCCCn3ccnc3)nc(-c3ccncc3)n2)cc1 (stereo not drawn) [Example 33, N-(3-(1H-imidazol-1-yl)propyl)-6-(2-phenylcyclopropyl)-2-(pyridin-4-yl)-pyrimidin-4-amine]
48.3	6.82	Cc1nc(NCCCn2ccnc2)cc(C2Cc3ccccc3C2)n1 [Example 34, N-(3-(1H-imidazol-1-yl)propyl)-6-(2,3-dihydro-1H-inden-2-yl)-2-methyl-pyrimidin-4-amine]
26.8	3.52	c1ccc2c(c1)CC(c1cc(NCCCn3ccnc3)nc(-c3ccncc3)n1)C2 [Example 36, N-(3-(1H-imidazol-1-yl)propyl)-6-(2,3-dihydro-1H-inden-2-yl)-2-(pyridin-4-yl)-pyrimidin-4-amine]
